In PubChem BioAssay (NCI):
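GI50: concentration for 50% inhibition of growth. Definition used: TGI = concentration required for complete inhibition of growth.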

Columns and labels:
Test in all cases: NCI-60 cell line screen, 384-well format
HT29 colon = test system: HT29 colon
NCI-H522 lung = test system: NCI-H522 lung
T-47D breast = test system: T-47D breast
DU-145 prostate = test system: DU-145 prostate
NCI/ADR-RES ovarian = test system: NCI/ADR-RES ovarian
SK-MEL-5 melanoma = test system: SK-MEL-5 melanoma
SF-539 CNS = test system: SF-539 CNS
RXF 393 renal = test system: RXF 393 renal
OVCAR-4 ovarian = test system: OVCAR-4 ovarian
SK-MEL-28 melanoma = test system: SK-MEL-28 melanoma
HCC-2998 colon = test system: HCC-2998 colon
HCT-15 colon = test system: HCT-15 colon
MCF7 breast = test system: MCF7 breast
CCRF-CEM leukemia = test system: CCRF-CEM leukemia
SK-OV-3 ovarian = test system: SK-OV-3 ovarian
MDA-MB-231 breast = test system: MDA-MB-231 breast
786-0 renal = test system: 786-0 renal
TK-10 renal = test system: TK-10 renal
IGROV1 ovarian = test system: IGROV1 ovarian
OVCAR-3 ovarian = test system: OVCAR-3 ovarian
MOLT-4 leukemia = test system: MOLT-4 leukemia
A498 renal = test system: A498 renal
UACC-62 melanoma = test system: UACC-62 melanoma
HOP-62 NSCLC = test system: HOP-62 NSCLC
OVCAR-5 ovarian = test system: OVCAR-5 ovarian
A549 NSCLC = test system: A549 NSCLC
NCI-H23 lung = test system: NCI-H23 lung
ACHN renal = test system: ACHN renal
OVCAR-8 ovarian = test system: OVCAR-8 ovarian
CAKI-1 renal = test system: CAKI-1 renal
NCI-H322M lung = test system: NCI-H322M lung
LOX IMVI melanoma = test system: LOX IMVI melanoma
SR leukemia = test system: SR leukemia
HOP-92 NSCLC = test system: HOP-92 NSCLC
SK-MEL-2 melanoma = test system: SK-MEL-2 melanoma
MDA-MB-435 melanoma = test system: MDA-MB-435 melanoma
PC-3 prostate = test system: PC-3 prostate
U251 glioblastoma = test system: U251 glioblastoma
SF-268 CNS = test system: SF-268 CNS
MDA-MB-468 breast = test system: MDA-MB-468 breast
NCI-H226 lung = test system: NCI-H226 lung
RPMI-8226 leukemia = test system: RPMI-8226 leukemia
NCI-H460 NSCLC = test system: NCI-H460 NSCLC
UACC-257 melanoma = test system: UACC-257 melanoma
M14 melanoma = test system: M14 melanoma
SN12C renal = test system: SN12C renal
HCT-116 colon = test system: HCT-116 colon
UO-31 renal = test system: UO-31 renal
MALME-3M melanoma = test system: MALME-3M melanoma
K-562 leukemia = test system: K-562 leukemia
SW-620 colon = test system: SW-620 colon
HL-60(TB) leukemia = test system: HL-60(TB) leukemia
SF-295 CNS = test system: SF-295 CNS
BT-549 breast = test system: BT-549 breast
KM12 colon = test system: KM12 colon
COLO 205 colon = test system: COLO 205 colon

CS[C@@]1(C(=O)Nc2ccc3[nH]nc(-c4ccc(OC(C)C)nc4)c3c2)CCN(CC(=O)N2CC=C(c3ccc(-c4ncn(C)n4)cc3)CC2)C1
GI50 (HT29 colon): 43.1 nM
TGI (HT29 colon): > 100000 nM
GI50 (NCI-H522 lung): 7970 nM
TGI (NCI-H522 lung): > 100000 nM
GI50 (T-47D breast): 5690 nM
TGI (T-47D breast): > 100000 nM
GI50 (DU-145 prostate): 61600 nM
TGI (DU-145 prostate): > 100000 nM
GI50 (NCI/ADR-RES ovarian): 3770 nM
TGI (NCI/ADR-RES ovarian): > 100000 nM
GI50 (SK-MEL-5 melanoma): 58.9 nM
TGI (SK-MEL-5 melanoma): 1730 nM
GI50 (SF-539 CNS): 1360 nM
TGI (SF-539 CNS): 47800 nM
GI50 (RXF 393 renal): 354 nM
TGI (RXF 393 renal): 2200 nM
GI50 (OVCAR-4 ovarian): 1800 nM
TGI (OVCAR-4 ovarian): > 100000 nM
TGI (SK-MEL-28 melanoma): 58.3 nM
GI50 (HCC-2998 colon): 24.2 nM
TGI (HCC-2998 colon): 222 nM
GI50 (HCT-15 colon): 2820 nM
TGI (HCT-15 colon): > 100000 nM
GI50 (MCF7 breast): > 100000 nM
TGI (MCF7 breast): > 100000 nM
GI50 (CCRF-CEM leukemia): 5120 nM
TGI (CCRF-CEM leukemia): > 100000 nM
GI50 (SK-OV-3 ovarian): 17200 nM
TGI (SK-OV-3 ovarian): > 100000 nM
GI50 (MDA-MB-231 breast): 373 nM
TGI (MDA-MB-231 breast): 34300 nM
GI50 ([…]-0 renal): 1770 nM
TGI (786-0 renal): > 100000 nM
GI50 (TK-10 renal): 561 nM
TGI (TK-10 renal): > 100000 nM
GI50 (IGROV1 ovarian): 514 nM
TGI (IGROV1 ovarian): > 100000 nM
GI50 (OVCAR-3 ovarian): 5370 nM
TGI (OVCAR-3 ovarian): > 100000 nM
GI50 (MOLT-4 leukemia): 2560 nM
TGI (MOLT-4 leukemia): 8650 nM
GI50 (A498 renal): 2520 nM
TGI (A498 renal): > 100000 nM
GI50 (UACC-62 melanoma): 11 nM
TGI (UACC-62 melanoma): 215 nM
GI50 (HOP-62 NSCLC): 476 nM
TGI (HOP-62 NSCLC): > 100000 nM
GI50 (OVCAR-5 ovarian): 108 nM
TGI (OVCAR-5 ovarian): > 100000 nM
GI50 (A549 NSCLC): 302 nM
TGI (A549 NSCLC): > 100000 nM
GI50 (NCI-H23 lung): 17.1 nM
TGI (NCI-H23 lung): 136 nM
GI50 (ACHN renal): 2250 nM
TGI (ACHN renal): > 100000 nM
GI50 (OVCAR-8 ovarian): 5370 nM
TGI (OVCAR-8 ovarian): > 100000 nM
GI50 (CAKI-1 renal): 273 nM
TGI (CAKI-1 renal): > 100000 nM
GI50 (NCI-H322M lung): 438 nM
TGI (NCI-H322M lung): > 100000 nM
GI50 (LOX IMVI melanoma): 90.4 nM
TGI (LOX IMVI melanoma): 267 nM
GI50 (SR leukemia): 375 nM
TGI (SR leukemia): 4000 nM
GI50 (HOP-92 NSCLC): 189 nM
TGI (HOP-92 NSCLC): 631 nM
GI50 (SK-MEL-2 melanoma): 38.6 nM
TGI (SK-MEL-2 melanoma): 207 nM
GI50 (MDA-MB-435 melanoma): 96.3 nM
TGI (MDA-MB-435 melanoma): > 100000 nM
GI50 (PC-3 prostate): 18800 nM
TGI (PC-3 prostate): > 100000 nM
GI50 (U251 glioblastoma): 1530 nM
TGI (U251 glioblastoma): > 100000 nM
GI50 (SF-268 CNS): > 100000 nM
TGI (SF-268 CNS): > 100000 nM
GI50 (MDA-MB-468 breast): 907 nM
TGI (MDA-MB-468 breast): 7330 nM
GI50 (NCI-H226 lung): 595 nM
TGI (NCI-H226 lung): 21600 nM
GI50 (RPMI-8226 leukemia): 536 nM
TGI (RPMI-8226 leukemia): 2440 nM
GI50 (NCI-H460 NSCLC): 884 nM
TGI (NCI-H460 NSCLC): > 100000 nM
GI50 (UACC-257 melanoma): 16.7 nM
TGI (UACC-257 melanoma): 97.6 nM
GI50 (M14 melanoma): 12.5 nM
TGI (M14 melanoma): 109 nM
GI50 (SN12C renal): 3370 nM
TGI (SN12C renal): > 100000 nM
GI50 (HCT-116 colon): 122 nM
TGI (HCT-116 colon): 2390 nM
GI50 (UO-31 renal): 810 nM
TGI (UO-31 renal): > 100000 nM
TGI (MALME-3M melanoma): 22.1 nM
GI50 (K-562 leukemia): 819 nM
TGI (K-562 leukemia): > 100000 nM
GI50 (SW-620 colon): 112 nM
TGI (SW-620 colon): > 100000 nM
GI50 (HL-60(TB) leukemia): 43.7 nM
TGI (HL-60(TB) leukemia): 1350 nM
GI50 (SF-295 CNS): 12800 nM
TGI (SF-295 CNS): > 100000 nM
GI50 (BT-549 breast): 2030 nM
TGI (BT-549 breast): > 100000 nM
GI50 (KM12 colon): 297 nM
TGI (KM12 colon): > 100000 nM
GI50 (COLO 205 colon): 20 nM
TGI (COLO 205 colon): 194 nM
